The source of these data is PubChem BioAssay (NCI).

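These data come from cells grown in 96-well plates and exposed to compound for 48 hours at five concentrations. The concentration for 50% growth inhibition is given as GI50. TGI: total growth inhibition.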

Holding throughout (assay): growth of human tumour cells (NCI), 48 h
Assay [1] concerns M14 melanoma.
Assay [2] relates to MDA-MB-231 breast.
Assay [3] relates to SK-MEL-2 melanoma.
Assay [4] relates to HCC-2998 colon.
Assay [5] has as its system SR leukemia.
Assay [6] concerns OVCAR-4 ovarian.
In assay [7] the test system is EKVX NSCLC.
Assay [8] concerns HL-60(TB) leukemia.

Regarding `COc1ccc(/C=C/C(=O)c2ccc(NC(=O)CSc3nnc(-c4cc(OC)c(OC)c(OC)c4)o3)cc2)cc1`, the GI50 in assay [1] was 1.6 µM; in assay [2] it was 1.82 µM; in assay [3] it was 1.79 µM; in assay [4], 1.88 µM; in assay [5] it was 1.86 µM; in assay [6] it was 2 µM. Further, the TGI in assay [1] was 3.3 µM; in assay [2], 3.5 µM; in assay [3], 4.82 µM; in assay [4] it was 3.65 µM; in assay [5], 4.01 µM; in assay [6], 4.62 µM.
For `C[C@H]1[C@H](C)CC[C@]2(C(=O)O)CC[C@]3(C)C(=CC[C@@H]4[C@@]5(C)CC[C@H](OC(=O)/C=C\c6ccc(O)cc6)C(C)(C)[C@@H]5CC[C@]43C)[C@H]12`, the GI50 was 2.55 µM in assay [2]; 3.11 µM in assay [7]; 28.9 µM in assay [3]; 2.92 µM in assay [4]; 2.69 µM in assay [5]; 10.6 µM in assay [6]. Besides, the TGI was 13.5 µM in assay [2]; 13.7 µM in assay [7]; more than 100 µM in assay [3]; 14.1 µM in assay [4]; 6.66 µM in assay [5]; 28.8 µM in assay [6].
For the compound `CCC1=C[C@H]2CN(CCc3c([nH]c4ccccc34)[C@@](C(=O)OC)(c3cc4c(cc3OC)N(C)[C@H]3[C@@](O)(C(=O)OC)[C@H](OC(C)=O)[C@]5(CC)[C@@H]6C[C@@H]6CN6CC[C@]43[C@@H]65)C2)C1`, the GI50 in assay [1] was 0.0264 µM; in assay [2] it was 0.0864 µM; in assay [7], 0.0966 µM; in assay [3], 0.0752 µM; in assay [4], 0.084 µM; in assay [8], 0.0265 µM. For the same compound, the GI50 in assay [6] is 0.375 µM. In addition, the TGI in assay [1] was 0.156 µM; in assay [2], 1.88 µM; in assay [7] it was more than 25 µM; in assay [3] it was 4.64 µM; in assay [4], 3.07 µM; in assay [8] it was 0.14 µM. This compound displayed a TGI in assay [6] of more than 25 µM.
As to `CCOC(=O)c1c2c(n3cccc(F)c13)C(=O)c1ncccc1C2=O`, the GI50 in assay [1] is 0.049 µM; in assay [2], 4.14 µM; in assay [7], 1.07 µM; in assay [3], 4.81 µM; in assay [4] it was 1.29 µM; in assay [8], 1.03 µM. For the same compound, in assay [6], the GI50 was 1.8 µM. Moreover, the TGI in assay [1] came to 1.29 µM; in assay [2] it was 64.7 µM; in assay [7] it was 15.8 µM; in assay [3] it was 73.7 µM; in assay [4] it was 15.4 µM; in assay [8], 3.69 µM. Further, the TGI in assay [6] is 11.3 µM.
`C#CCOc1c(OC)cc(C(=O)/C(C)=C/c2cccc(N=[N+]=[N-])c2)cc1OC`: the GI50 in assay [1] is 0.178 µM; in assay [2] it was 0.695 µM; in assay [7], 0.517 µM; in assay [3], 0.725 µM; in assay [4], 0.464 µM; in assay [8], 0.0411 µM. Also, the GI50 in assay [6] was 1.19 µM. The TGI is more than 100 µM in assay [1]; 26.1 µM in assay [2]; more than 100 µM in assay [7]; more than 100 µM in assay [3]; more than 100 µM in assay [4]; 0.481 µM in assay [8]. The TGI in assay [6] is more than 100 µM.
Consider `CC1=C(C(=O)Nc2ccc(Cl)c(Cl)c2)C(c2cccc(O)c2)NC(=S)N1` (configuration not stated), for which the GI50 in assay [1] was 13.6 µM; in assay [2], 8.44 µM; in assay [7], 9.38 µM; in assay [3], 8 µM; in assay [5], 14.2 µM; in assay [8], 11.2 µM. Further, the GI50 in assay [6] is 12.4 µM. Moreover, the TGI is 26.7 µM in assay [1]; 20 µM in assay [2]; 21.4 µM in assay [7]; 18.3 µM in assay [3]; 49 µM in assay [5]; 44.2 µM in assay [8]. The compound further yielded a TGI in assay [6] of more than 50 µM.
As for `COC(C(=O)[C@@H](O)[C@@H](C)O)[C@@H]1Cc2cc3cc(O[C@H]4C[C@@H](O[C@H]5C[C@@H](O)[C@H](O)C(C)O5)[C@H](O)C(C)O4)c(C)c(O)c3c(O)c2C(=O)[C@H]1O[C@H]1C[C@@H](O[C@H]2C[C@@H](O[C@H]3C[C@@H](O)[C@@H](O)C(C)O3)[C@@H](O)C(C)O2)[C@H](O)C(C)O1` (some centres not stated), the GI50 was 0.633 µM in assay [1]; 0.78 µM in assay [7]; 0.172 µM in assay [3]; 0.569 µM in assay [4]; 0.112 µM in assay [5]; 6.61 µM in assay [8]. The GI50 in assay [6] is 0.571 µM. The TGI in assay [1] is 7.61 µM; in assay [7], more than 32.5 µM; in assay [3], 1.11 µM; in assay [4], 7.74 µM; in assay [5], more than 32.5 µM; in assay [8] it was more than 32.5 µM. In assay [6], this compound gave a TGI of more than 32.5 µM.
With `COc1ccc2c(c1)c(=O)oc1cc(OC/C(=N\O)c3ccc(F)cc3)ccc12`, the GI50 was 15.7 µM in assay [1]; 18 µM in assay [2]; 30.2 µM in assay [7]; 19.1 µM in assay [3]; 16.4 µM in assay [4]; 18.5 µM in assay [6]. Also, the TGI is 30.7 µM in assay [1]; 43.4 µM in assay [2]; more than 100 µM in assay [7]; 47.4 µM in assay [3]; 33.5 µM in assay [4]; 44.5 µM in assay [6].
For `COc1cc2c(cc1C)NC(=O)/C2=C/c1c(C)nc2sc(C)cn12`, the GI50 in assay [1] was 44.2 µM; in assay [2], 40.9 µM; in assay [7], 49.2 µM; in assay [3], more than 100 µM; in assay [4], 31.7 µM; in assay [5] it was 22.6 µM. In assay [6], the GI50 was more than 100 µM. Also, the TGI in assay [1], in assay [2], in assay [7], in assay [3], in assay [4] and in assay [5] was more than 100 µM each time. The same compound came in with a TGI in assay [6] of more than 100 µM.
Regarding `C#Cc1ccc(-n2c(/C=C/c3ccc4ccccc4n3)nc3ncccc3c2=O)cc1`, the GI50 was 0.544 µM in assay [2]; 0.306 µM in assay [3]; 0.64 µM in assay [4]; 0.297 µM in assay [8]; 0.315 µM in assay [6]. In addition, the TGI is 1.65 µM in assay [2]; 0.785 µM in assay [3]; 1.79 µM in assay [4]; 0.851 µM in assay [8]; 1.81 µM in assay [6].
On to `Cn1c2ccccc2c(=S)c2cc(NC(=O)CCCCC(=O)Nc3ccc4c(c3)c(=S)c3ccccc3n4C)ccc21`, for which the TGI in assay [1], in assay [2], in assay [7], in assay [3], in assay [4] and in assay [5] was more than 100 µM in each case.
In the case of `CCOCC[P+](c1ccccc1)(c1ccccc1)c1ccccc1`, the GI50 is 26.5 µM in assay [1]; 22.6 µM in assay [2]; 18.6 µM in assay [3]; 12.1 µM in assay [5]; 12.2 µM in assay [8]; 11.9 µM in assay [6]. Further, the TGI is more than 100 µM in assay [1]; more than 100 µM in assay [2]; 47.9 µM in assay [3]; more than 100 µM in assay [5]; 36 µM in assay [8]; more than 100 µM in assay [6].
With `O=C1/C(=c2\c3ccccc3n3c(=O)c4ccccc4nc23)Nc2ccccc21`, the TGI in assay [1], in assay [2], in assay [7], in assay [3], in assay [4] and in assay [5] was more than 100 µM in each case. In addition, in assay [6], the TGI was more than 100 µM.
`COc1cc2c3c(n(CCCN4CCOCC4)c(=O)c2cc1OC)-c1cc2c(cc1C3=O)OCO2`: the GI50 in assay [1] is 0.9 µM; in assay [2] it was 3.92 µM; in assay [7], 50.9 µM; in assay [3], more than 100 µM; in assay [4], 10.7 µM; in assay [8] it was 3.57 µM. Moreover, the GI50 in assay [6] was 51 µM. Also, the TGI in assay [1] was 22.2 µM; in assay [7], more than 100 µM; in assay [3], more than 100 µM; in assay [4], 65.4 µM; in assay [8], more than 47 µM; in assay [6], more than 100 µM.
Turning to `O=C(O)c1cn(C2CC2)c2cc(N3CCN(C(=O)Nc4nc(-c5ccc(Cl)cc5)cs4)CC3)c(F)cc2c1=O`, the GI50 in assay [1] was 2.86 µM; in assay [2], 3.63 µM; in assay [7], 2.97 µM; in assay [3] it was 2.4 µM; in assay [4], 4.09 µM; in assay [8], 1.47 µM. For the same compound, the GI50 in assay [6] was 3.61 µM. The TGI is more than 100 µM in assay [1]; more than 100 µM in assay [2]; more than 100 µM in assay [7]; 6.85 µM in assay [3]; more than 100 µM in assay [4]; 4.76 µM in assay [8]. Also, the TGI in assay [6] is more than 100 µM.
